The test system of assay [1] is PKB Ser473 phosphorylation in Rat1-myr-HA-p110 beta cells. Kind of assay: Reverse protein array assay, PKB Ser473 phosphorylation in Rat1-myr-p110 beta cells. The class given is cell-based. As to conditions: 0.5 h, pAkt Ser473, 30 minutes incubation, read-out: p-PKB IC50. In a few lines: (§1)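 Lysates were arrayed at four dilutions, and phospho-PKB Ser473 was quantified by relative fluorescence signal. They came from Rat1-myr-HA-p110 alpha, beta or delta cells exposed for 30 min at 37 °C to an 8-point compound series with 0.2% DMSO constant.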

For a further assay, the target named is T1, PI3K beta (Homo sapiens, UniProt P42338).
T1 construct: for the full-length p110-b subunit are generated and fused by overlapping PCR; p85(iSH2) fusion partner (see partner chain) (N); His tag (C); made in house; host or cells: baculovirus; Tn5 (Trichoplusia ni) or TiniPro insect cells
T1 sequence (P42338 with tags, fused parts or gaps limits assumed): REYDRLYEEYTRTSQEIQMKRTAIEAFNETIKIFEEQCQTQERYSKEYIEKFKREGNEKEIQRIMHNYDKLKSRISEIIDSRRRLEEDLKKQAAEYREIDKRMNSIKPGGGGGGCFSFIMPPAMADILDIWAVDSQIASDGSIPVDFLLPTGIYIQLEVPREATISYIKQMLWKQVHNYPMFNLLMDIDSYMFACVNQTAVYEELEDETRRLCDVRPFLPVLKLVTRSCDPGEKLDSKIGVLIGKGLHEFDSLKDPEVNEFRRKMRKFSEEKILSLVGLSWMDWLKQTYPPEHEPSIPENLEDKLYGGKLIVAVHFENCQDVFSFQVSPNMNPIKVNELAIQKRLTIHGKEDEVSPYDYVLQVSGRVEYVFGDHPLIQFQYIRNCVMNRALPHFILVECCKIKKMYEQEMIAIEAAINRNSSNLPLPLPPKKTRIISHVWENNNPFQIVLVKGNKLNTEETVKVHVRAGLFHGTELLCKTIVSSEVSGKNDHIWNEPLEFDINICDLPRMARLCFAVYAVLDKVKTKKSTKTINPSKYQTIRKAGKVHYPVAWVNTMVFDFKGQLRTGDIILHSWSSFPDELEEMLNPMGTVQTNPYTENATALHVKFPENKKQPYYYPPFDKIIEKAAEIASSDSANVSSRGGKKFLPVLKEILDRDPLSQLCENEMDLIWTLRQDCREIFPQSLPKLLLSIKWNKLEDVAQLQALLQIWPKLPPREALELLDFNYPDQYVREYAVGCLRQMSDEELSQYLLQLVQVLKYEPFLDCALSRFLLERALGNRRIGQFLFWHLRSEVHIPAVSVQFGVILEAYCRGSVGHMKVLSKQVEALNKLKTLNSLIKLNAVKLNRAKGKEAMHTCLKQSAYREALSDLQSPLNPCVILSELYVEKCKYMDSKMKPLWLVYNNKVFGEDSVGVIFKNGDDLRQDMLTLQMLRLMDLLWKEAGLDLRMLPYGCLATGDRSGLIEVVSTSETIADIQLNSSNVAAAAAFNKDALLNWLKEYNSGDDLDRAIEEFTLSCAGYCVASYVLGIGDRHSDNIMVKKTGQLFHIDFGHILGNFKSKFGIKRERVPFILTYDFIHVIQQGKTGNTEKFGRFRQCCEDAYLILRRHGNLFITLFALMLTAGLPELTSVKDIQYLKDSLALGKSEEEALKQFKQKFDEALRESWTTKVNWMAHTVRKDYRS
The assay is described as follows: PI3K beta kinase assay (Kinase-Glo luminescence). The class given is biochemical. In a few lines:
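p110β full-length/p85 iSH2 construct (BV-949), 25 nM, with 1 μM ATP and 10 μg/mL phosphatidylinositol in 10 mM Tris pH 7.5, 3 mM MgCl2, 50 mM NaCl, 0.05% CHAPS, 1 mM DTT. 60 min at room temperature; ATP remaining read by Kinase-Glo luminescence. IC50 from 8-point four-parameter logistic fit.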
In general terms: Kinase-Glo measures the ATP left after a reaction by luminescence.

A further assay deals with T2, PI3K delta (Homo sapiens, UniProt O00329).
T2 construct: for the full-length p110-d subunit are generated and fused by overlapping PCR; p85(iSH2) fusion partner (see partner chain) (N); His tag (C); made in house; host or cells: baculovirus; Tn5 (Trichoplusia ni) or TiniPro insect cells
T2 sequence (O00329 with tags, fused parts or gaps limits assumed): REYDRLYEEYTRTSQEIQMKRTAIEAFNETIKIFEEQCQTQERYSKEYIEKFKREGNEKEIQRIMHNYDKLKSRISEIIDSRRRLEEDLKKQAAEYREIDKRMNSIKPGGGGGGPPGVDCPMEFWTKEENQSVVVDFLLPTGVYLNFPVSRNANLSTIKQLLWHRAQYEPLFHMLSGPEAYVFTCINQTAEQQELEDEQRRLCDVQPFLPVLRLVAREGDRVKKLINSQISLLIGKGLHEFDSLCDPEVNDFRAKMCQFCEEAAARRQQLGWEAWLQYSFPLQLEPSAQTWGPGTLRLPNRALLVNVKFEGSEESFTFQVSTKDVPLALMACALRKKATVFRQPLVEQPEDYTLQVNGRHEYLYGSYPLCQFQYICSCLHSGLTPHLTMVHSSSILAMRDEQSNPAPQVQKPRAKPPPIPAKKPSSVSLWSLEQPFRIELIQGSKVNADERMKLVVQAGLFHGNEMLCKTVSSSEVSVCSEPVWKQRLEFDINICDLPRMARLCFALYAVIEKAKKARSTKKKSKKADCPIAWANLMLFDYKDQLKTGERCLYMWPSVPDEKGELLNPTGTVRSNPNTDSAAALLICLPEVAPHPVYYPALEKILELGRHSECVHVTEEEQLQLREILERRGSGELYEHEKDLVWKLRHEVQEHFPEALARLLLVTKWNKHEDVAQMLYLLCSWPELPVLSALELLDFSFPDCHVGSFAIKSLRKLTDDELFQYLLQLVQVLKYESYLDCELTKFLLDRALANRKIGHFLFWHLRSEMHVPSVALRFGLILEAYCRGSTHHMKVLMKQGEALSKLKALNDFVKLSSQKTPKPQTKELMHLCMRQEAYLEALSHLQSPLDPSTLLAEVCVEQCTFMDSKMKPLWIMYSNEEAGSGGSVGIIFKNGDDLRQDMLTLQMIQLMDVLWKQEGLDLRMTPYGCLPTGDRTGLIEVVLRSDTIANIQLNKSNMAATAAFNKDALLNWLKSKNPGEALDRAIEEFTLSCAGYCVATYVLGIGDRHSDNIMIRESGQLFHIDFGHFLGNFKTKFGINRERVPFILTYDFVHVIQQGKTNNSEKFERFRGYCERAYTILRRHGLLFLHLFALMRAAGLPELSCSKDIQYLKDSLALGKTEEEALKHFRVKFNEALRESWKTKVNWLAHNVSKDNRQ
Kind of assay: PI3K delta kinase assay (Kinase-Glo luminescence). The class given is biochemical. In a few lines: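 ATP 1 μM, PI 10 μg/mL, PI3Kδ construct BV1060 10 nM (final); 10 mM Tris pH 7.5, 3 mM MgCl2, 50 mM NaCl, 0.05% CHAPS, 1 mM DTT; 60 min RT; Kinase-Glo stop, luminescence.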

The next assay concerns the target T3, PI3K alpha (Homo sapiens, UniProt P42336).
T3 construct: p85(iSH2) fusion partner (see partner chain) (N); His tag (C); made in house; host or cells: baculovirus; Tn5 (Trichoplusia ni) or TiniPro insect cells
Kind of assay: PI3K alpha kinase assay (Kinase-Glo luminescence). The class given is biochemical. In a few lines: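 Compounds are titrated at 8 concentrations and mixed with PI3Kα protein (EMV B1075, 10 nM) in phosphatidylinositol (10 μg/mL). ATP at 1 μM starts the 60-minute room-temperature reaction, which is stopped with Kinase-Glo before luminescence reading. Four-parameter curve fitting gives IC50.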

In assay [2] the test system is PKB Ser473 phosphorylation in Rat1-myr-HA-p110 delta cells. The assay is described as follows: Reverse protein array assay, PKB Ser473 phosphorylation in Rat1-myr-p110 delta cells. As to conditions: read-out: p-PKB IC50. The class given is cell-based. In a few lines: as §1
For the next assay, the target named is T4, PI3K gamma (Homo sapiens, UniProt P48736).
T4 construct: His tag (C); made in house; host or cells: baculovirus (pVL1393); Tn5 or TiniPro insect cells; construct from Roger Williams lab, MRC LMB
T4 sequence (P48736 144-1102 limits assumed): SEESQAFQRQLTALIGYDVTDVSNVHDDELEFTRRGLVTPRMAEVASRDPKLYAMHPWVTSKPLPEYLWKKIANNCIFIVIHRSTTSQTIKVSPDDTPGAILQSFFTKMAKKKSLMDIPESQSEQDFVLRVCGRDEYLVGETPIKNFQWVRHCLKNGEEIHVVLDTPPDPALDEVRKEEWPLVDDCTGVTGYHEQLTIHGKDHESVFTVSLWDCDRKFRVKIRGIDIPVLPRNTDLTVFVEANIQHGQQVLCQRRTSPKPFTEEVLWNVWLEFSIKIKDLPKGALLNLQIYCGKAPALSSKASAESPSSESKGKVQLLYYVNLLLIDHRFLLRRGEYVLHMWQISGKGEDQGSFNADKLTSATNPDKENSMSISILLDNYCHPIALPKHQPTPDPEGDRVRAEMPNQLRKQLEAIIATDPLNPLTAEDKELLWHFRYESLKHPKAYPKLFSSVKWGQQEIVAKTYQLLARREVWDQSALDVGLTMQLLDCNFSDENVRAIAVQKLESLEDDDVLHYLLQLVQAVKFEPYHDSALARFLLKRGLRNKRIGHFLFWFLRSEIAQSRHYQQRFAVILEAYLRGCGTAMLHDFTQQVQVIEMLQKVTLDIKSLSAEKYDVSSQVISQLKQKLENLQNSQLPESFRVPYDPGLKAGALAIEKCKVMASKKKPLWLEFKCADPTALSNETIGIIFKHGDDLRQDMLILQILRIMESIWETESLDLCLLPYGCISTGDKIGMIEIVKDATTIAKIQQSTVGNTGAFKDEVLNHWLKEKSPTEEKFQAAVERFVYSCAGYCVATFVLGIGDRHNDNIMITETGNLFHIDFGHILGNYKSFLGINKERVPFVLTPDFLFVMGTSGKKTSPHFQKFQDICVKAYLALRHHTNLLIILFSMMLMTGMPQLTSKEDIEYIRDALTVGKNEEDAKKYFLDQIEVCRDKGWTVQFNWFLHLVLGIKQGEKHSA
The assay is described as follows: PI3K gamma kinase assay (Kinase-Glo luminescence). The class given is biochemical. In short, it runs like this:
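Luminescent ATP-depletion (Kinase-Glo) assay with 150 nM PI3Kγ, 1 μM ATP and 10 μg/mL phosphatidylinositol in 10 mM Tris-HCl pH 7.5, 3 mM MgCl2, 50 mM NaCl, 0.05% CHAPS, 1 mM DTT; 120 min at room temperature. Eight-point dilutions; IC50 by four-parameter logistic fit.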

T3 sequence (P42336 with tags, fused parts or gaps limits assumed): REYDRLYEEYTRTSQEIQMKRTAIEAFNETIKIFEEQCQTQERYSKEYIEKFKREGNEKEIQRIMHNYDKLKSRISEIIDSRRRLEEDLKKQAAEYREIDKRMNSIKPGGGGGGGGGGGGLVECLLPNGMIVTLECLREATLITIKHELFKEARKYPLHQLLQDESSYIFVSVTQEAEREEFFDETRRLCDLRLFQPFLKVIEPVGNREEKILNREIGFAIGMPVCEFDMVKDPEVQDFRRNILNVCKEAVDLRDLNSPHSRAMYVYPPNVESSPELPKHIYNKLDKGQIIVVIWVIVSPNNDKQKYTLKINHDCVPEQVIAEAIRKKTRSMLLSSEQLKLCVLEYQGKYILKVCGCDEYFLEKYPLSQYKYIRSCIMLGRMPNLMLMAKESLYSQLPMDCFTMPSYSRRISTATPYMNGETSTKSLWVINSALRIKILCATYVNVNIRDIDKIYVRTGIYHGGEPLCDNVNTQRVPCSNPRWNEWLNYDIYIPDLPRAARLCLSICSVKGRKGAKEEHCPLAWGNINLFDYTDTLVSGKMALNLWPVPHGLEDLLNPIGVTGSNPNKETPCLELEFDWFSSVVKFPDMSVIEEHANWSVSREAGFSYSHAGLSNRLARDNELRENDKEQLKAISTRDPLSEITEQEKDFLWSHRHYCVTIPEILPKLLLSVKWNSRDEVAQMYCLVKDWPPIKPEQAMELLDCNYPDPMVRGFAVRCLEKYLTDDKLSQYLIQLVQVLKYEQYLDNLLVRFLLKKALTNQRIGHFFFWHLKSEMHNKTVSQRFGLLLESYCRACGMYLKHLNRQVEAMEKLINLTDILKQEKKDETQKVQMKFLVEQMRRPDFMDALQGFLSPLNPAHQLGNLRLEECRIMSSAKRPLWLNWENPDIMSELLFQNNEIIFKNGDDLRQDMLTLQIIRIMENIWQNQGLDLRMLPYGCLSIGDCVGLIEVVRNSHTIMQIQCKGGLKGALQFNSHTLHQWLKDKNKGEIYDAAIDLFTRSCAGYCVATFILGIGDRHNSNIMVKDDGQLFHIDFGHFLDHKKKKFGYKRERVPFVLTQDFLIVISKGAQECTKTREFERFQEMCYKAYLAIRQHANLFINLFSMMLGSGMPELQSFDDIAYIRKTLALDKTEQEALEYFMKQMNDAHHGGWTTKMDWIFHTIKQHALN

`CNc1ccc(-c2ccc3ncc4c(c3c2)n(-c2cn(C)nc2C)c(=O)n4C)cn1` [Example 118.2, 1-(1,3-Dimethyl-1H-pyrazol-4-yl)-3-methyl-8-(6-methylamino-pyridin-3-yl)-1,3-dihydro-imidazo[4,5-c]quinolin-2-one]: the IC50 (usually the concentration that gives 50% inhibition) in assay [1] was below 5 nM; at PI3K beta, 82 nM; on PI3K delta, 13 nM; on PI3K alpha, 11 nM; in assay [2] it was 10 nM; at PI3K gamma, 279 nM.

For the compound `COc1ccc(-c2ccc3ncc4c(c3c2)n(-c2cn(C(C)C)nc2C)c(=O)n4C)cn1` [Example 2.8, 1-(1-Isopropyl-3-methyl-1H-pyrazol-4-yl)-8-(6-methoxy-pyridin-3-yl)-3-methyl-1,3-dihydro-imidazo[4,5-c]quinolin-2-one], the IC50 in assay [1] stood at 41 nM; on PI3K beta it was 109 nM; at PI3K delta it was 15 nM; on PI3K alpha, 29 nM; in assay [2], 105 nM; on PI3K gamma, 205 nM.

On to `Cc1nn(C)cc1-n1c(=O)n(C)c2cnc3ccc(-c4ccc(C(N)=O)cc4)cc3c21` [Example 41, 4-[1-(1,3-Dimethyl-1H-pyrazol-4-yl)-3-methyl-2-oxo-2,3-dihydro-1H-imidazo[4,5-c]quinolin-8-yl]-benzamide], for which the 50% inhibitory concentration (IC50) was 37 nM in assay [1]; 112 nM on PI3K beta; 82 nM on PI3K delta; below 9 nM on PI3K alpha; 92 nM in assay [2]; 165 nM on PI3K gamma.

`Cc1nn(C)cc1-n1c(=O)n(C)c2cnc3ccc(-c4cnc5c(c4)nnn5C)cc3c21` [Example 72, 1-(1,3-Dimethyl-1H-pyrazol-4-yl)-3-methyl-8-(3-methyl-3H-[1,2,3]triazolo[4,5-b]pyridin-6-yl)-1,3-dihydro-imidazo[4,5-c]quinolin-2-one]: the IC50 in assay [1] was 299 nM; on PI3K beta, 112 nM; on PI3K delta, 29 nM; at PI3K alpha, 29 nM; in assay [2], 225 nM; at PI3K gamma, 341 nM.

Consider `CCOc1ccc(-c2ccc3ncc4[nH]c(=O)n(-c5cn(C)nc5C)c4c3c2)cn1` [Example 110, 1-(1,3-Dimethyl-1H-pyrazol-4-yl)-8-(6-ethoxy-pyridin-3-yl)-1,3-dihydro-imidazo[4,5-c]quinolin-2-one], for which the IC50 in assay [1] worked out at 113 nM; on PI3K beta it was 137 nM; at PI3K delta it was 42 nM; at PI3K alpha, 5 nM; in assay [2], 196 nM; on PI3K gamma it was 337 nM.

As for `CCOc1ccc(-c2ccc3ncc4c(c3c2)n(-c2cn(CC)nc2C)c(=O)n4C)cc1OCC` [Example 27.1, 8-(3,4-Diethoxy-phenyl)-1-(1-ethyl-3-methyl-1H-pyrazol-4-yl)-3-methyl-1,3-dihydro-imidazo[4,5-c]quinolin-2-one], the IC50 came to 21 nM in assay [1]; 122 nM on PI3K beta; 17 nM at PI3K delta; 8 nM at PI3K alpha; 56 nM in assay [2]; 215 nM on PI3K gamma.

With `Cc1nn(C)cc1-n1c(=O)n(C)c2cnc3ccc(-c4cccc(C(N)=O)c4)cc3c21` [Example 46, 3-[1-(1,3-Dimethyl-1H-pyrazol-4-yl)-3-methyl-2-oxo-2,3-dihydro-1H-imidazo[4,5-c]quinolin-8-yl]-benzamide], the IC50 in assay [1] was found to be 541 nM; on PI3K beta it was 563 nM; at PI3K delta it was 292 nM; at PI3K alpha it was 50 nM; in assay [2] it was 489 nM; at PI3K gamma, 388 nM.

Consider `COc1ccc(-c2ccc3ncc4c(c3c2)n(-c2cn(C)nc2C)c(=O)n4C)cc1OC` [Example 1.8, 8-(3,4-Dimethoxy-phenyl)-1-(1,3-dimethyl-1H-pyrazol-4-yl)-3-methyl-1,3-dihydro-imidazo[4,5-c]quinolin-2-one], for which the IC50 in assay [1] turned out to be 8 nM; at PI3K beta, 20 nM; at PI3K delta, 5 nM; on PI3K alpha it was 6 nM; in assay [2], 14 nM; on PI3K gamma it was 144 nM.

`COCCOc1ccc(-c2ccc3ncc4c(c3c2)n(-c2cn(C)nc2C)c(=O)n4C)cn1` [Example 18, 1-(1,3-Dimethyl-1H-pyrazol-4-yl)-8-[6-(2-methoxy-ethoxy)-pyridin-3-yl]-3-methyl-1,3-dihydro-imidazo[4,5-c]quinolin-2-one]: the IC50 was found to be 231 nM in assay [1]; 252 nM on PI3K beta; 115 nM on PI3K delta; 86 nM on PI3K alpha; 314 nM in assay [2]; 397 nM at PI3K gamma.

For the compound `COc1ccc(-c2ccc3ncc4[nH]c(=O)n(-c5cn(C)nc5C)c4c3n2)cc1OC` [Example 249, 8-(3,4-dimethoxy-phenyl)-1-(1,3-dimethyl-1H-pyrazol-4-yl)-1,3-dihydro-1,3,5,9-tetraaza-cyclopenta[a]naphthalen-2-one], the IC50 was 22 nM in assay [1]; 33 nM on PI3K beta; 8 nM at PI3K delta; 5 nM at PI3K alpha; 29 nM in assay [2]; 125 nM at PI3K gamma.

`CCOc1cc(-c2ccc3ncc4c(c3c2)n(-c2cn(CC)nc2C)c(=O)n4C)ccc1OC` [Example 28.1, 8-(3-Ethoxy-4-methoxy-phenyl)-1-(1-ethyl-3-methyl-1H-pyrazol-4-yl)-3-methyl-1,3-dihydro-imidazo[4,5-c]quinolin-2-one]: the IC50 was 29 nM in assay [1]; 15 nM on PI3K beta; 6 nM on PI3K delta; below 3 nM at PI3K alpha; 45 nM in assay [2]; 75 nM on PI3K gamma.

On to `CCOc1cncc(-c2ccc3ncc4c(c3c2)n(-c2cn(C)nc2Cl)c(=O)n4C)c1` [Example 56.4, 1-(3-Chloro-1-methyl-1H-pyrazol-4-yl)-8-(5-ethoxy-pyridin-3-yl)-3-methyl-1,3-dihydro-imidazo[4,5-c]quinolin-2-one], for which the IC50 in assay [1] amounted to 11 nM; on PI3K beta, 6 nM; at PI3K delta it was 6 nM; on PI3K alpha, 5 nM; in assay [2], 11 nM; on PI3K gamma, 121 nM.

For `CCOc1cc(-c2ccc3ncc4c(c3c2)n(-c2c(C)nn(C)c2C)c(=O)n4C)ccc1OC` [Example 28.2, 8-(3-Ethoxy-4-methoxy-phenyl)-3-methyl-1-(1,3,5-trimethyl-1H-pyrazol-4-yl)-1,3-dihydro-imidazo[4,5-c]quinolin-2-one], the IC50 in assay [1] stood at 125 nM; on PI3K beta, 132 nM; at PI3K delta it was 53 nM; at PI3K alpha it was 62 nM; in assay [2] it was 212 nM; at PI3K gamma, 174 nM.

`CNC(=O)c1ccc(-c2ccc3ncc4c(c3c2)n(-c2cn(C(C)C)nc2C)c(=O)n4C)cn1` [Example 15.3, 5-[1-(1-Isopropyl-3-methyl-1H-pyrazol-4-yl)-3-methyl-2-oxo-2,3-dihydro-1H-imidazo[4,5-c]quinolin-8-yl]-pyridine-2-carboxylic acid methylamide]: the IC50 in assay [1] came to 21 nM; at PI3K beta, 526 nM; at PI3K delta, 329 nM; on PI3K alpha, 123 nM; in assay [2] it was 100 nM; on PI3K gamma, 325 nM.

Consider `Cc1nn(C)cc1-n1c(=O)n(C)c2cnc3ccc(-c4cncc(N(C)S(C)(=O)=O)c4)cc3c21` [Example 121, N-{5-[1-(1,3-Dimethyl-1H-pyrazol-4-yl)-3-methyl-2-oxo-2,3-dihydro-1H-imidazo[4,5-c]quinolin-8-yl]-pyridin-3-yl}-N-methyl-methanesulfonamide], for which the half-maximal inhibitory concentration (IC50) in assay [1] was 444 nM; on PI3K beta it was 93 nM; at PI3K delta, 18 nM; on PI3K alpha, 19 nM; in assay [2] it was 341 nM; on PI3K gamma it was 184 nM.

The record behind these values is patent US20140005163A1 (NOVARTIS AG, priority 2010, published 2014).
